Experiment [1] has as its system P110β. Conditions: cited from earlier work.
Experiment [2] deals with p110δ. Conditions: cited from earlier work.
Experiment [3] has as its system protein kinases. Conditions: cited from earlier work.
Experiment [4] has as its system murine model of asthma. The conditions noted are these: ovalbumin-induced airway inflammation; cited from earlier work.
Experiment [5] has as its target T1, PI3Kδ (Homo sapiens, UniProt O00329).
T1 construct: Full length p110 subunits of PI3k α, β and δ, N-terminally labeled with polyHis tag; polyHis (N); made in house; host or cells: Sf9 insect cells (baculovirus)
The experiment in a line: In vitro enzyme assay of recombinant PI3K (residual ATP bioluminescence). It is filed as biochemical. The method, then: Recombinant Expression of PI3Ks
Full length p110 subunits of PI3k α, β and δ, N-terminally labeled with polyHis tag, were coexpressed with p85 with Baculo virus expression vectors in sf9 insect cells. P110/p85 heterodimers were purified by sequential Ni-NTA, Q-HP, Superdex-100 chromatography. Purified α, β and δ isozymes were stored at −20° C. in 20 mM Tris, pH 8, 0.2M NaCl, 50% glycerol, 5 mM DTT, 2 mM Na cholate. Truncated PI3Kγ, residues 114-1102, N-terminally labeled with polyHis tag, was expessed with Baculo virus in Hi5 insect cells. The γ isozyme was purified by sequential Ni-NTA, Superdex-200, Q-HP chromatography. The γ isozyme was stored frozen at −80° C. in NaH2PO4, pH 8, 0.2M NaCl, 1% ethylene glycol, 2 mM β-mercaptoethanol.
Assays were performed in 25 μL with the above final concentrations of components in white polyproplyene plates (Costar 3355). Phospatidyl inositol phosphoacceptor, PtdIns(4,5)P2 P4508, was from Echelon Biosciences. The ATPase activity of the alpha and gamma isozymes was not greatly stimulated by PtdIns(4,5)P2 under these conditions and was therefore omitted from the assay of these isozymes. Test compounds were dissolved in dimethyl sulfoxide and diluted with three-fold serial dilutions. The compound in DMSO (1 μL) was added per test well, and the inhibition relative to reactions containing no compound, with and without enzyme was determined. After assay incubation at room temperature, the reaction was stopped and residual ATP determined by addition of an equal volume of a commercial ATP bioluminescence kit (Perkin Elmer EasyLite) according to the manufacturer's instructions, and detected using a AnalystGT luminometer.

The subject of experiment [6] is mouse model of rheumatoid arthritis. Conditions: in vivo; cited from earlier work.
In experiment [7] the test system is model of systemic lupus erythematosis. Conditions: in vivo; cited from earlier work.

T1 sequence (O00329 whole entry): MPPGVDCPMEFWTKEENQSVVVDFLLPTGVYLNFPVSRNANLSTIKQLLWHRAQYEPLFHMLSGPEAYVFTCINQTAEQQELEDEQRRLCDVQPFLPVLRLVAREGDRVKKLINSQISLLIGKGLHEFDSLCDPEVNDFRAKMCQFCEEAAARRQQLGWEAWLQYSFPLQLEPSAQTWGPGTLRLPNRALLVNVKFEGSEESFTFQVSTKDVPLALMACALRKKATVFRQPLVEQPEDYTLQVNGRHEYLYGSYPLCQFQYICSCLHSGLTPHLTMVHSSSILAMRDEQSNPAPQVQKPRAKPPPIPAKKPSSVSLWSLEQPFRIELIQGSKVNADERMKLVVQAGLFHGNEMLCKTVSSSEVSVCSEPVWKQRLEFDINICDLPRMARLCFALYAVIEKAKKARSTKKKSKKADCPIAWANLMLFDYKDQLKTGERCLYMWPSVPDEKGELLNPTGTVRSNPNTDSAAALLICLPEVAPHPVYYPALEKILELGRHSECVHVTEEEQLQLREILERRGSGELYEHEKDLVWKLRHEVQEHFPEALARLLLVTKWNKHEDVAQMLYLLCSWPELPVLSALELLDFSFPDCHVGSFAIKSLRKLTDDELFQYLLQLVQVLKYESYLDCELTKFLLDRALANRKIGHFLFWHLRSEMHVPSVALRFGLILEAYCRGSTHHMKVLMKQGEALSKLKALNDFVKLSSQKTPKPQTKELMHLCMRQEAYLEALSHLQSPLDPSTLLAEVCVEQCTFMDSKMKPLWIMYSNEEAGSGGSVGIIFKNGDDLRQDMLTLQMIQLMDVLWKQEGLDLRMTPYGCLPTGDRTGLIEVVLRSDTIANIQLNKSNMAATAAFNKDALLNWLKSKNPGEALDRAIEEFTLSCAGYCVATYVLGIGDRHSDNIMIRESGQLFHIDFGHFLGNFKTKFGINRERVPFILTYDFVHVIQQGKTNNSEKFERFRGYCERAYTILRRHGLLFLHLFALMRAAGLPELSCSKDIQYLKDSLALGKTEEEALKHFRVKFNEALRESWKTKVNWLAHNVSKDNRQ
T1 sequence (P27986 whole entry partner): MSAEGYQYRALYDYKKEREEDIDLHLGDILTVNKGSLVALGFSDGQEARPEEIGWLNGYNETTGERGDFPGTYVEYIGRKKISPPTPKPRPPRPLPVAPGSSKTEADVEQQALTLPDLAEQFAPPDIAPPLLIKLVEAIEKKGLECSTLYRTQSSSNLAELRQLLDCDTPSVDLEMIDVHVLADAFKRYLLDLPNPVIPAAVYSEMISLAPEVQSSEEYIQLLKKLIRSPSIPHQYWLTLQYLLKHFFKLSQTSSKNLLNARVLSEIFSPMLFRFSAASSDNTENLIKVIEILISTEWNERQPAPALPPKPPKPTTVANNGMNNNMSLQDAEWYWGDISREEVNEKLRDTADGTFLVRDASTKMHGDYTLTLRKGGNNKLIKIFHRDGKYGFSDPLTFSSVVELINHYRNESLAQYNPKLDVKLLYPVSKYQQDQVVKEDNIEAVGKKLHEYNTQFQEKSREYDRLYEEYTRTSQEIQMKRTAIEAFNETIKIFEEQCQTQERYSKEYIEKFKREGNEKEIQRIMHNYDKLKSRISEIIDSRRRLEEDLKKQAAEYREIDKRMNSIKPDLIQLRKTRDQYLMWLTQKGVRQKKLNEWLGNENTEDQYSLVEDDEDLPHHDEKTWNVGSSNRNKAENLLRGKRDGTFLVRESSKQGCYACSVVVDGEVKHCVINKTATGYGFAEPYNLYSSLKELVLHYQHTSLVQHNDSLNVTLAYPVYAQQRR

`Cc1cc(C(C)Nc2ccccc2)c2nc(N3CCOCC3)cc(=O)n2c1` (centres unmarked) [TGX-221]: in experiment [1] (beta versus alpha), the selective over alpha entry is on record as “more than 500 fold”. Further, the selective over delta in experiment [1] (beta versus delta) was 14 fold. Further, the selective over gamma entry in experiment [1] (beta versus gamma) was “more than 500 fold”. Also, the IC50 in experiment [1] (read-out: potency on beta) is 7 nM.

For `Cc1ccccc1-n1c(Cn2cnc3c(N)ncnc32)nc2cccc(C)c2c1=O` [IC87114], the “inhibits p110δ” value in experiment [2] is on record as “high nanomolar range (triple digit)”. Also, in experiment [3], the “activity against any protein kinases tested” value is listed as “no activity”. For the same compound, the “inflammation and disease in a murine model of asthma” value in experiment [4] was “significantly ameliorate inflammation and disease”.

Turning to `Cc1ccccc1-c1nc2c(C)cccc2cc1COc1ncnc2c1CC(=O)N2` [Example 20, 4-((8-Methyl-2-o-tolylquinolin-3-yl)methoxy)-5H-pyrrolo[2,3-d]pyrimidin-6(7H)-one], in experiment [5], the IC50 stood at 349 nM.

As to `Clc1nc(NCc2cc3cccc(Cl)c3nc2-c2ccccc2Cl)c2nc[nH]c2n1` [Example 3, 2-Chloro-N-((8-chloro-2-(2-chlorophenyl)quinolin-3-yl)methyl)-9H-purin-6-amine], the IC50 in experiment [5] is 615 nM.

As for `Clc1cccc2cc(CNc3ncnc4[nH]ccc34)c(-c3ccccc3)nc12` [Example 32, N-((8-chloro-2-phenylquinolin-3-yl)methyl)-7H-pyrrolo[2,3-d]pyrimidin-4-amine], the IC50 in experiment [5] came to 270 nM.

With `Clc1cccc2cc(CNc3ncnc4[nH]cnc34)c(Oc3ccccc3)nc12` [Example 30, N-((8-Chloro-2-phenoxyquinolin-3-yl)methyl)-9H-purin-6-amine], the IC50 in experiment [5] came out at 125 nM.

Consider `C=CCC(Oc1ncnc2[nH]ccc12)c1cc2cccc(C)c2nc1-c1ccccc1Cl` (centres unmarked) [Example 9, 3-(1-(7H-Pyrrolo[2,3-d]pyrimidin-4-yloxy)but-3-enyl)-2-(2-chlorophenyl)-8-methylquinoline], for which the IC50 in experiment [5] is 28 nM.

Consider `Cc1ccccc1-c1nc2c(C)cccc2cc1CNc1ncnc2[nH]cnc12` [Example 1, N-((8-Methyl-2-o-tolylquinolin-3-yl)methyl)-9H-purin-6-amine], for which the IC50 in experiment [5] stood at 84 nM.

Turning to `COc1nc(NCc2cc3cccc(Cl)c3nc2-c2ccccc2Cl)c2cc[nH]c2n1` [Example 4, N-((8-Chloro-2-(2-chlorophenyl)quinolin-3-yl)methyl)-2-meth-oxy-7H-pyrrolo[2,3-d]pyrimidin-4-amine], the IC50 in experiment [5] stood at 5420 nM.

For `Fc1ccc2cc(CNc3ncnc4[nH]cnc34)c(-c3ccccc3Cl)nc2c1` [Example 36, N-((2-(2-Chlorophenyl)-7-fluoroquinolin-3-yl)methyl)-9H-purin-6-amine], in experiment [5], the IC50 came out at 225 nM.

With `Cc1cccc2cc(C(C)Nc3ncnc4[nH]cnc34)c(-c3ccccc3Cl)nc12` (centres unmarked) [Example 6, N-(1-(2-(2-Chlorophenyl)-8-methylquinolin-3-yl)ethyl)-9H-purin-6-amine], the IC50 in experiment [5] came to 31 nM.

Take `Clc1ccccc1-c1nc2c(Cl)cccc2cc1CNc1ncnc2[nH]cnc12` [Example 2, N-((8-Chloro-2-(2-chlorophenyl)quinolin-3-yl)-methyl)-9H-purin-6-amine]: the IC50 in experiment [5] is 68 nM.

With `CC[C@H](Nc1ncnc2[nH]cnc12)c1cc2cccc(Cl)c2nc1-c1cccc(F)c1` [Example 42, N-((S)-1-(8-Chloro-2-(3-fluorophenyl)quinolin-3-yl)propyl)-9H-purin-6-amine], the IC50 in experiment [5] was 13 nM.

As to `C[C@H](Nc1ncnc2[nH]cnc12)c1cc2cccc(Cl)c2nc1-c1cccc(F)c1` [N-((S)-1-(8-Chloro-2-(3-fluorophenyl)quinolin-3-yl)ethyl)-9H-purin-6-amine], the IC50 in experiment [5] was 6 nM.

With `COc1cccc(F)c1-c1nc2c(C)cccc2cc1CNc1ncnc2[nH]cnc12` [Example 17, N-((2-(2-Fluoro-6-methoxyphenyl)-8-methylquinolin-3-yl)methyl)-9H-purin-6-amine], the IC50 in experiment [5] stood at 651 nM.

On to `C[C@H](Nc1ncnc2[nH]cnc12)c1nc2cccc(Cl)c2cc1-c1cccc(F)c1` [Example 43, N-((S)-1-(5-Chloro-3-(3-fluorophenyl)quinolin-2-yl)ethyl)-9H-purin-6-amine], for which the IC50 in experiment [5] was determined as 5 nM.

Take `Cc1ccccc1-c1nc2c(C)cccc2cc1CNc1nc(N)nc2[nH]cnc12` [Example 13, N6-((8-Methyl-2-o-tolylquinolin-3-yl)methyl)-9H-purine-2,6-diamine]: the IC50 in experiment [5] stood at 82 nM.

On to `Fc1cccc(-c2nc3c(Cl)cccc3cc2CNc2ncnc3[nH]cnc23)c1` [Example 31, N-((8-Chloro-2-(3-fluorophenyl)quinolin-3-yl)methyl)-9H-purin-6-amine], for which the IC50 in experiment [5] was determined as 74 nM.

As for `Fc1ccc(OCc2ccccc2)c(-c2nc3c(Cl)cccc3cc2CNc2ncnc3[nH]cnc23)c1` [Example 39, N-((2-(2-(Benzyloxy)-5-fluorophenyl)-8-chloroquinolin-3-yl)methyl)-9H-purin-6-amine], the IC50 in experiment [5] turned out to be 31 nM.

Regarding `C[C@H](Nc1ncnc2[nH]cnc12)c1cc2ccc(F)cc2nc1-c1cccs1` [Example 46, N-((S)-1-(7-Fluoro-2-(thiophen-2-yl)quinolin-3-yl)ethyl)-9H-purin-6-amine], in experiment [5], the IC50 turned out to be 8 nM.

As to `C[C@@H](Nc1ncnc2[nH]cnc12)c1cc2cccc(Cl)c2nc1-c1cccc(F)c1` [N-((R)-1-(8-Chloro-2-(3-fluorophenyl)quinolin-3-yl)ethyl)-9H-purin-6-amine], in experiment [5], the IC50 was found to be 424 nM.

For the compound `O=C1NC(=O)/C(=C\c2ccc3nccnc3c2)S1` [AS 605240], the “efficacy in a mouse model of rheumatoid arthritis” value in experiment [6] is reported as “efficacious”. Also, the “onset of disease in a model of systemic lupus erythematosis” value in experiment [7] is on record as “delay onset of disease”.

Turning to `Fc1cc2cc(CNc3ncnc4[nH]cnc34)c(-c3ccccc3Cl)nc2cc1F` [Example 38, N-((2-(2-Chlorophenyl)-6,7-difluoroquinolin-3-yl)methyl)-9H-purin-6-amine], the IC50 in experiment [5] was 551 nM.
